Where “and” joins values, the source holds several entries; their conditions need not be identical. Identical values can stand only once. Like-named read-outs stand apart in the source and are kept apart here.
Tests used:
SARS-CoV-2 [1] = test: microbe, parasite or virus in culture; assay type: cell-based; conditions: for TOA: HeLa-ACE2, replicate wells n=1-3
Calu-3 cells [2] = test: cells; conditions: Homo sapiens, Calu-3, read-out: cell count EC50, Calu-3, geomean; ^↑ = increasing dose-response curve
[3] = Uninfected Calu-3 48 h Cell-Titer Glo cytotoxicity counter screen; conditions: human, uninfected Calu-3 cells, cytotoxicity CC50, uninfected Calu-3, geomean
Calu-3 cells [4] = test: as above; conditions: Calu-3, replicate wells n=1-3
HeLa-ACE2 cells [5] = test: cells; conditions: Homo sapiens, HeLa-ACE2, read-out: cell count in infection assay EC50, HeLa-ACE2, geomean; ^↑ = increasing dose-response curve
SARS-CoV-2 [6] = test: microbe, parasite or virus in culture; assay type: cell-based; conditions: for %infected: HeLa-ACE2, replicate wells n=1-3
[7] = Uninfected HeLa-ACE2 24 h live/dead cytotoxicity counter screen; assay type: cell-based, human; conditions: human, uninfected HeLa-ACE2 cells, geomean; read-out: uninfected HeLa-ACE2 cytotoxicity CC50
HeLa-ACE2 cells [8] = test: as above; assay type: cell-based, human; conditions: HeLa-ACE2, replicate wells n=1-3
SARS-CoV-2 [9] = test: microbe, parasite or virus in culture; assay type: cell-based; conditions: for %infected: Calu-3, replicate wells n=1-3

COc1ccc(C[C@H](N)C(=O)N[C@H]2[C@@H](O)[C@H](n3cnc4c(N(C)C)ncnc43)O[C@@H]2CO)cc1 [Puromycin]
TOA (SARS-CoV-2 [1]; concentration log[M] -5.017): -102.365 and -102.878 and -104.791 and -98.49 and -99.8269 and -99.8889 and -98.5459 and -89.5564 and -100 | TOA (SARS-CoV-2 [1]; concentration log[M] -5.4942): -102.562 and -103.725 and -107.111 and -95.8769 and -99.8786 and -99.7495 and -98.3444 and -97.4941 and -99.8965 | TOA (SARS-CoV-2 [1]; concentration log[M] -5.9713): -102.27 and -103.614 and -103.314 and -96.7138 and -100 (3×) and -98.3433 and -92.9164 | TOA (SARS-CoV-2 [1]; concentration log[M] -6.4484): -6.41 and -22.1743 and -1.526 and -76.305 and -86.1829 and -83.03 and -58.994 and -58.9112 and -89.0793 | TOA (SARS-CoV-2 [1]; concentration log[M] -6.9255): -12.6152 and -14.5357 and 3.304 and -16.4877 and -30.7409 and -13.5207 and -8.881 and -3.253 and -32.0225 | TOA (SARS-CoV-2 [1]; concentration log[M] -7.4026): -1.409 and 2.055 and 2.822 and -9.903 and -4.893 and -5.119 and -5.9163 and -2.505 and -5.006 | TOA (SARS-CoV-2 [1]; concentration log[M] -7.8798): -0.7005 and -1.372 and 4.453 and -4.998 and -0.516 and 2.028 and -14.3841 and -2.585 and -13.6565 | EC50 (SARS-CoV-2 [1]; Severe acute respiratory syndrome coronavirus 2, HeLa-ACE2, fixed 10 hpi, geomean, read-out: CoV-2 TOA EC50): 316 nM | EC50 (Calu-3 cells [2]): > 10000 nM | CC50 at 48 h [3]: 3950 nM | cytotox (Calu-3 cells [4]; concentration log[M] -4.52288): -100.931 and -99.9022 and -95.4488 and -97.7263 and -96.8224 and -101.443 and -97.7214 and -100.308 and -97.0229 | cytotox (Calu-3 cells [4]; concentration log[M] -5): -80.4262 and -81.4732 and -68.7172 and -83.9318 and -82.4069 and -88.2536 and -90.1262 and -91.0255 and -86.7764 | cytotox (Calu-3 cells [4]; concentration log[M] -5.47712): -21.5211 and -21.4754 and -12.3695 and -29.1257 and -36.4975 and -41.3268 and -49.2553 and -54.1555 and -56.8603 | cytotox (Calu-3 cells [4]; concentration log[M] -5.95424): -2.83 and -11.281 and -7.043 and -17.8087 and -13.674 and -31.1214 and -23.8075 and -33.8515 and -29.7354 | cytotox (Calu-3 cells [4]; concentration log[M] -6.43136): 2.078 and 1.682 and 8.441 and -6.555 and 0.06053 and -11.5086 and -12.2093 and -0.8504 and -4.056 | cytotox (Calu-3 cells [4]; concentration log[M] -6.90848): 3.604 and 1.518 and 9.871 and 2.227 and 16.0597 and -0.8904 and 5.168 and 1.586 and 4.2472 | cytotox (Calu-3 cells [4]; concentration log[M] -7.38561): 8.858 and -2.4064 and 3.577 and 15.479 and 1.71 and -0.4894 and 11.4275 and 7.753 and 11.1753 | cytotox (Calu-3 cells [4]; concentration log[M] -7.86273): 1.729 and -14.6095 and -2.223 and 9.032 and 7.858 and -12.5661 and -1.561 and 2.663 and 8.58 | EC50 (HeLa-ACE2 cells [5]): 1550 nM | EC50 (SARS-CoV-2 [6]; HeLa-ACE2, individual values of 9 independent experiments, read-out: EC50 (µM), Fig 1c): 0.435 µM and 0.38 µM and 0.598 µM and 0.621 µM and 0.45 µM and 0.531 µM and 0.521 µM and 0.566 µM and 0.31 µM | %infected (SARS-CoV-2 [6]; concentration log[M] -5.017): -100.174% and -66.1982% and -101.885% and -101.158% and -100.229% and -100.414% and -100.159% and -100.524% and -100% | %infected (SARS-CoV-2 [6]; concentration log[M] -5.4942): -100.174% and -93.9019% and -89.6683% and -95.454% and -98.8405% and -100.414% and -93.5473% and -100.524% and -98.8065% | %infected (SARS-CoV-2 [6]; concentration log[M] -5.9713): -100.174% and -98.3678% and -99.6425% and -99.9897% and -99.6057% and -100.414% and -99.8612% and -100.183% and -99.7407% | %infected (SARS-CoV-2 [6]; concentration log[M] -6.4484): 1.313% | EC50 (SARS-CoV-2 [6]; Severe acute respiratory syndrome coronavirus 2, HeLa-ACE2, HeLa-ACE2, MOI 0.09, read-out: EC50): 0.52 µM | EC50 (SARS-CoV-2 [6]; Severe acute respiratory syndrome coronavirus 2, HeLa-ACE2, HeLa-ACE2, MOI 0.26, read-out: EC50): 0.433 µM | EC50 (SARS-CoV-2 [6]; Severe acute respiratory syndrome coronavirus 2, HeLa-ACE2, HeLa-ACE2, MOI 0.51, read-out: EC50): 0.43 µM | EC50 (SARS-CoV-2 [6]; Severe acute respiratory syndrome coronavirus 2, HeLa-ACE2, HeLa-ACE2, MOI 1.1, read-out: EC50): 0.431 µM | EC50 (SARS-CoV-2 [6]; Severe acute respiratory syndrome coronavirus 2, HeLa-ACE2, HeLa-ACE2, MOI 2.2, read-out: EC50): 0.455 µM | EC50 (SARS-CoV-2 [6]; Severe acute respiratory syndrome coronavirus 2, HeLa-ACE2, HeLa-ACE2, geomean, read-out: SARS-CoV-2 EC50): 0.48 µM | CC50 at 24 h [7]: 658 nM | cytotox (HeLa-ACE2 cells [8]; concentration log[M] -4.39794): -100 (5×) and -99.957 and -100.055 and -99.8917 and -99.5551 | cytotox (HeLa-ACE2 cells [8]; concentration log[M] -4.87506): -100 (5×) and -100.043 and -100.055 and -99.8917 and -99.8888 | cytotox (HeLa-ACE2 cells [8]; concentration log[M] -5.35218): -99.2405 and -100.043 and -100 and -99.7082 and -99.8513 and -99.7143 and -99.834 and -99.8917 and -99.8888 | cytotox (HeLa-ACE2 cells [8]; concentration log[M] -5.8293): -94.5992 and -94.54 and -94.2197 and -97.5201 and -91.5242 and -94.1429 and -95.9602 and -98.5916 and -99.2214 | cytotox (HeLa-ACE2 cells [8]; concentration log[M] -6.30643): -16.5401 and -18.2717 and -10.2395 and -53.9023 and -53.9033 and -44.2857 and -37.078 and -52.3294 and -37.5973 | cytotox (HeLa-ACE2 cells [8]; concentration log[M] -6.78355): -2.194 and 3.482 and 5.615 and -5.9081 and 6.4684 and -6.286 and -2.656 and 2.0585 and 1.78 | cytotox (HeLa-ACE2 cells [8]; concentration log[M] -7.26067): 9.198 and 8.212 and 13.6251 and -16.9949 and 6.9145 and -11.5714 and 1.66 and 4.117 and 13.2369 | cytotox (HeLa-ACE2 cells [8]; concentration log[M] -7.73779): 5.148 and 2.193 and 2.395 and 7.367 and 9.294 and 9.714 and 11.1787 and -1.625 and 6.897 | %infected (SARS-CoV-2 [9]; concentration log[M] -5): -95.8583% and -98.0315% and -98.6862% and -95.9501% and -76.0417% and -82.6326% and -93.9332% and -99.6609% and -93.5404% | %infected (SARS-CoV-2 [9]; concentration log[M] -5.47712): -67.9332% and -73.9862% and -77.2001% and -69.7882% and -47.5028% and -51.8982% and -50.0755% and -50.9352% and -58.0559% | %infected (SARS-CoV-2 [9]; concentration log[M] -5.95424): -28.7555% and -23.4276% and -35.8088% and -33.2702% and 12.7351% and -26.1199% and 1.582% and -3.868% and -16.5101% | %infected (SARS-CoV-2 [9]; concentration log[M] -6.43136): -8.682% and 16.1023% and -10.697% and 2.701% and -30.2762% and -2.034% and 9.733% and 3.624% and 18.0604% | %infected (SARS-CoV-2 [9]; concentration log[M] -6.90849): 14.8237% and -16.8235% and 10.3561% and -2.261% and -10.1676% and -3.437% and 1.061% and 10.2779% and -14.1014% | %infected (SARS-CoV-2 [9]; concentration log[M] -7.38561): 9.109% and 11.8626% and -0.1312% and 10.7467% and -22.0858% and 7.736% and -8.662% and -8.078% and 8.576% | %infected (SARS-CoV-2 [9]; concentration log[M] -7.86273): -4.7462% and 13.3419% and -1.416% and -3.878% and 20.4436% and -1.961% and -6.536% and -8.873% and -15.4821% | %infected (SARS-CoV-2 [9]; concentration log[M] -8.33985): 2.5816% and -20.6025% and -3.165% and -4.091% and -15.6383% and 9.983% and 19.7898% and 7.961% and 5.366% | EC50 (SARS-CoV-2 [9]; Severe acute respiratory syndrome coronavirus 2, Calu-3, Calu-3, geomean, read-out: SARS-CoV-2 EC50): 2740 nM

Reference: article PMC8175350, “Drug repurposing screens identify chemical entities for the development of COVID-19 interventions” (Nature Communications, 2021)
